Test results published in patent publication US20240343728A1, “COMPOUNDS THAT INHIBIT PI3K ISOFORM ALPHA AND METHODS FOR TREATING CANCER” (Scorpion Therapeutics, Inc., priority 2021, published 2024).

Tested on: T47D pAKT
Assay: Homogenous Time-Resolved Fluorescence (HTRF) Assay pAKT-T47D
Format: cell-based
Settings: Homo sapiens; T47D.1 cell line, PI3Kα H1047R mutation present, HTRF detection pAKT (S473), timepoint 1 hour
Method: Homogenous Time-Resolved Fluorescence (HTRF) Assay—pAKT-T47D
Compounds were assayed using homogeneous time-resolved fluorescence (HTRF).
Gibco RPMI 1640 Medium, no phenol red; Gibco RPMI 1640 Medium; Gibco Trypsin-EDTA (0.5%), no phenol red; Gibco DPBS; Trypan blue solution 0.4% (Corning); Avantor Seradigm Premium Grade Fetal Bovine Serum (FBS); Greiner 784080-384 well TC treated white plates; pAKT (Ser473) HTRF; Gibco Insulin, human recombinant, zinc solution; Gibco Recovery Cell Culture Freezing Medium; Countess II FL Automated Cell Counter (ThermoFisher); Countess II Slides (ThermoFisher); Microscope; and PHERAstar FSX Microplate Reader (BMG LABTECH, Inc.).
The scinamic cell line ID was T47D.1, the HTRF detection was pAKT (S473), a PI3Kα H1047R mutation was present, the seeding density was 5000, the timepoint was 1 hour, and the medium used was RPMI+10% FBS (no phenol red)+0.2 units/ml bovine insulin.
The procedure was as follows: • 1. Prepared ARP: • a. Stamped 12.5 nL from 10 mM source plate to destination plate using Echo. Sealed plate immediately and froze at −20° C. if it was not used on the same day. • b. If a frozen ARP was used, the plate was thawed and spun at 1000 rpm×1 min. • 2. Preparation of cells (adherent): • a. Aspirated media from cells. Washed cells with sterile 1×PBS. Aspirated PBS and added appropriate amount of Trypsin. • b. Once cells were fully trypsinized, added appropriate media to resuspend cells. Transferred cells to a 15 mL or 50 mL conical tube. • c. Counted cells on the Countess II Cell Counter. • 3. Plating of cells: • a. Prepared cells at appropriate plating density. Dispensed 12 μL of diluted cells per well of a Greiner 784080-384 well TC treated white plate using a Multidrop Combi to columns 1-23. Added 12 uL of appropriate phenol free media only to column 24. • b. Placed plates in 37° C. tissue culture incubator for appropriate treatment time (refer to “Assay” table). • 4. Prepared HTRF Lysis Buffer • a. Calculate the amount of HTRF lysis buffer master mix needed to perform the desired experiments plus any extra dead volume required for dispensing (4 μL required per well). Dilute the Blocking Reagent into 4× Lysis Buffer at a ratio of 1:25 (i.e. 0.1 mL Blocking Reagent Solution plus 2.4 mL 4× Lysis Buffer). • b. Add 4 uL Lysis buffer master mix to all wells with sample or DMSO. Centrifuge the plates for 1 minute at 1000 rpm. • c. Incubate at room temperature for 30 minutes. • 5. Prepared HTRF Antibody • a. Calculated the amount of HTRF antibody master mix needed to perform the desired experiments plus any extra dead volume required for dispensing ([…]). Eu Cryptate antibody and d2 antibody were added to detection buffer each at a ratio of 1:40 (i.e. 100 μL Eu Cryptate+100 μL d2 Cryptate+3800 μL detection buffer). • b. 4 μL of antibody master mix was added to each well including the media only column 24. • c. Centrifuged the plates for 1 minute at 1000 rpm. Placed lid on and created a “humidity chamber” by placing the plates into a ziplock bag with wet paper towels or something similar and incubated overnight at room temperature, keeping away from light.
• 6. Measured on the PHERAstar/Envision using the HTRF protocol. When plates were read, all wells were read.

| SMILES | IC50 [nM] |
| --- | --- |
| Cc1c(C(Nc2nc3cc(S(C)(=O)=O)ccc3[nH]2)C(F)(F)F)oc2ccc(F)cc12 (racemic) [Compound 6b, 5-(methylsulfonyl)-N-(2,2,2-trifluoro-1-(5-fluoro-3-methylbenzofuran-2-yl)ethyl)-1H-benzo[d]imidazol-2-amine] | 200 to 500 |
| Cc1c([C@@H](Nc2nc3ccc(C#N)cc3[nH]2)C(C)C)oc2ccc(F)cc12 [Compound 1, (S)-2-((1-(5-fluoro-3-methylbenzofuran-2-yl)-2-methylpropyl)amino)-1H-benzo[d]imidazole-6-carbonitrile] | ≥ 500 |
| Cc1c([C@@H](Nc2nc3ccc(C(N)=O)cc3[nH]2)C(C)C)oc2ccc(F)cc12 [Compound 2, (S)-2-((1-(5-fluoro-3-methylbenzofuran-2-yl)-2-methylpropyl)amino)-1H-benzo[d]imidazole-6-carboxamide] | 200 to 500 |
| Cc1c([C@@H](Nc2nc3ccc(S(N)(=O)=O)cc3[nH]2)C(C)C)oc2ccc(F)cc12 [Compound 3, (S)-2-((1-(5-fluoro-3-methylbenzofuran-2-yl)-2-methylpropyl)amino)-1H-benzo[d]imidazole-6-sulfonamide] | < 200 |
| Cc1c([C@@H](Nc2nc3ccc(S(C)(=O)=O)cc3[nH]2)C(C)C)oc2ccc(F)cc12 [Compound 4, (S)-N-(1-(5-fluoro-3-methylbenzofuran-2-yl)-2-methylpropyl)-6-(methylsulfonyl)-1H-benzo[d]imidazol-2-amine] | < 200 |
| Cc1c([C@@H](Nc2nc3cc(S(C)(=O)=O)cnc3[nH]2)C(F)(F)F)oc2ccc(F)cc12 [Compound 5a, (R)-6-(methylsulfonyl)-N-(2,2,2-trifluoro-1-(5-fluoro-3-methylbenzofuran-2-yl)ethyl)-3H-imidazo[4,5-b]pyridin-2-amine] | 200 to 500 |
| Cc1c([C@H](Nc2nc3nc(N)ncc3[nH]2)C(F)(F)F)oc2ccc(F)cc12 [Compound 7b, (S)-N^8-(2,2,2-trifluoro-1-(5-fluoro-3-methylbenzofuran-2-yl)ethyl)-7H-purine-2,8-diamine] | 200 to 500 |
